“Also recorded” adds a separate entry of the source.
Experiments:
M2 muscarinic receptor = molecular target: T1, M2 muscarinic receptor (Homo sapiens, UniProt P08172); experiment: stimulation of cAMP, M2 CHO cells (M2Gs); assay type: cell-based; parameters: host or cells: CHO cells, stably transfected; details: for RAi: Table 8, relative to carbachol; for Δlog(τ/KA): Table 8, to carbachol
T1 sequence (P08172 1-466): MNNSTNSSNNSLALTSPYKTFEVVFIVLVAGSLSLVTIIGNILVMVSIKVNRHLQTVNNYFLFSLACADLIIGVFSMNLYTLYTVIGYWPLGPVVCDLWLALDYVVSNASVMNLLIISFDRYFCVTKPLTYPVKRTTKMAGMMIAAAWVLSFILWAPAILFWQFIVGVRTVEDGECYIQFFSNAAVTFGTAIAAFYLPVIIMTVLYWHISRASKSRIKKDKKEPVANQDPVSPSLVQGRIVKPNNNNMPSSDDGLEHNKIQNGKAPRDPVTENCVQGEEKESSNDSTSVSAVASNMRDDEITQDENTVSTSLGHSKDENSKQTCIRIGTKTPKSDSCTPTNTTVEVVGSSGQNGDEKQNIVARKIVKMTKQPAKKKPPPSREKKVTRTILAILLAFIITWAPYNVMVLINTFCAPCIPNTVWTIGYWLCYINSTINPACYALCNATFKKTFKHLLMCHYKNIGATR
Procedure: To determine level of cAMP, cells in suspension were pre-incubated for 1 h with 0.4 μM [^3H]adenine, washed, and incubated for 10 min in the presence of isobutylmethylxanthine and 10 μM forskolin. […] Incubation was ended by addition of 0.2 ml of 2.5 M HCl to the samples. Samples were applied to alumina columns (1.5 g of alumina per column), washed with 2 ml ammonium acetate (pH=7.0) and eluted from columns with 4 ml ammonium acetate and measured by liquid scintillation spectrometry. […] The incubation was stopped by addition of 0.5 ml of chloroform methanol HCl mixture (2:1:0.1). After separation of water and organic phases, 0.6 ml of water phase was applied to Dowex columns (1.5 g of Dowex per column), washed by 20 ml of 60 mM ammonium formate/5 mM sodium borate buffer and eluted from columns with 4 ml of 1M ammonium formate/0.1 formic acid buffer and measured by liquid scintillation spectrometry.
(§1) Measurements of the production of cAMP and inositol phosphates: Levels of second messengers cAMP and inositol phosphates were determined in radiochemical chromatography assays as described previously. To determine level of cAMP, cells in suspension were pre-incubated for 1 h with 0.4 μM [^3H]adenine, washed, and incubated for 10 min in the presence of isobutylmethylxanthine and 10 μM forskolin. […] Incubation was ended by addition of 0.2 ml of 2.5 M HCl to the samples. Samples were applied to alumina columns (1.5 g of alumina per column), washed with 2 ml ammonium acetate (pH=7.0) and eluted from columns with 4 ml ammonium acetate and measured by liquid scintillation spectrometry. […] For this purpose, new CHO cell lines stably expressing promiscuous G15 G-protein and M2 or M4 receptor were generated by transfection with pCMV/hygro vector and hygromycin selection. To determine the rate of formation of inositol phosphates IPX, suspended cells were pre-incubated with 0.1 μM [^3H]myo-inositol for 60 min, washed, and incubated with 10 mM LiCl for 15 min. […] The incubation was stopped by addition of 0.5 ml of chloroform methanol HCl mixture (2:1:0.1). After separation of water and organic phases, 0.6 ml of water phase was applied to Dowex columns (1.5 g of Dowex per column), washed by 20 ml of 60 mM ammonium formate/5 mM sodium borate buffer and eluted from columns with 4 ml of 1M ammonium formate/0.1 formic acid buffer and measured by liquid scintillation spectrometry.
For bi-phasic response, curves were inhibitory and stimulatory phase were fitted separately. Operational Model of Functional Agonism
[formula] where y is functional response at concentration of tested compound x, EMAX is maximal response of the system, KA is equilibrium dissociation constant and nH is slope factor. Eq. 5 was fitted to data from functional experiments. Eq. 5 was fitted to data by the two-step procedure described earlier. […] In the second step, Eq. 5 with EMAX fixed to the value determined in the first step was fitted to individual experimental data sets. Relative Intrinsic Activity

cerebellum (M2 rich) = experiment: forskolin-stimulated cAMP in dissipated rat cerebellum; assay type: cell-based; details: in words
Procedure: Effects of compounds 6A and 7A were then measured ex vivo in dissipated rat tissues (FIG. 5). Accumulation of IPX was measured in dissipated brain cortex (rich in M1 & M3), submaxillary gland (M1 & M3), and ventral tegmental area (M5). Native tissues express about 10-times less muscarinic receptors than CHO cell lines. Accumulation of cAMP was measured in cerebellum (M2) and striatum (M4).
Rat dissipated tissues: Suspension of dissipated tissues from rat brain cortex, cerebellum, striatum, ventral tegmental area (VTA) and submaxillary glands was prepared as described previously in supplementary methods. Adult 8-weeks old male Wistar rats were scarified by cervical dislocation in accordance with current legislative and guidelines under permission of Czech Ministry of Agriculture 16OZ23113/2017-17214. Tissues were dissected immediately. Submaxillary glands were minced by scissors. Tissues were dispersed by incubation for 15 min at 37° C. in KHB supplemented with trypsin and trituration every 5 min. Large undissipated parts were removed by cell mesh. Then dissipated tissues were centrifuged 3 min at 250×g, re-suspended in KHB and centrifuged again to remove trypsin. Suspension of dissipated tissues was used immediately in experiments. Two submaxillary glands or about 400 mg of brain tissue was used a 96-sample assay.
as §1
To exclude the possibility that the observed effects of compounds 6A and 7A are the result of overexpression in the heterologous system, functional response to the compounds was measured ex vivo in dissipated native rat tissues. […] Accumulation of IPX was measured in brain cortex, submaxillary gland, and ventral tegmental area (VTA) as brain cortex and submaxillary glands are rich in M1 and in M3 receptors, respectively, and VTA is the only region expressing significant amount of M5 receptors. Accumulation of cAMP was measured in M2-rich cerebellum and M4-rich striatum.

SMILES	RAi (M2 muscarinic receptor; M2Gs (↑cAMP))	Emax of inhibition of cAMP synthesis (cerebellum (M2 rich))	forskolin-stimulated cAMP level (cerebellum (M2 rich))	E′MAX (M2 muscarinic receptor; M2Gs (↑cAMP), Table 8) [fold increase]	Δlog(τ/KA) (M2 muscarinic receptor; M2Gs (↑cAMP))	EC50 (M2 muscarinic receptor) [µM]	Kd (M2 muscarinic receptor) [µM]	τ (M2 muscarinic receptor; M2Gs (↑cAMP), Table 8)
C1=CCN(Cc2cccs2)CC1.Cl [Compound 6A, 1-[(thiophen-2-yl)methyl]-1,2,3,6-tetrahydropyridin-1-ium chloride]	0	comparable to inhibition by carbachol	only a decrease in cAMP level	–	–	–	–	–
C[N+]1(Cc2cccs2)CC=CCC1.[I-] (stereo not drawn) [Compound 7A, 1-methyl-1-[(thiophen-2-yl)methyl]-1,2,3,6-tetrahydropyridin-1-ium iodide]	0	comparable to inhibition by carbachol	only a decrease in cAMP level	–	–	–	–	–
C[N+](C)(C)CCOC(N)=O [carbachol, reference compound]	–	–	transient decrease in forskolin-stimulated cAMP level at nanomolar concentrations followed by an increase at micromolar concentrations; also recorded: transient decrease in forskolin-stimulated cAMP level at sub-micromolar concentrations followed by an increase at micromolar concentrations	3.6 ± 0.2	0	–	–	–
O=C1CCCN1CC#CCN1CCCC1 [oxotremorine, reference compound]	2.65 ± 0.018	–	–	3.1 ± 0.2	−0.42 ± 0.04	1.15	3.98	2.3 ± 0.2
